IC50 data for 6 compounds are collected here from US8334316B2, “Substituted organosulfur compounds and methods of using thereof” (ACEA Biosciences, Inc., priority 2004, dated 2012).

What all share (type): cell-based
For test [1], the system named is OVCAR4 (human ovarian cancer cell line). Nature of the test: RT-CES system cell proliferation/cytotoxicity IC50, OVCAR4. To be noted: OVCAR-4, time point of maximum inhibition. The source says:
(§1) The RT-CES system comprises three components, an electronic sensor analyzer, a device station and 16× or 96× microtiter plate devices. Microelectrode sensor array was fabricated on glass slides with lithographical microfabrication methods and the electrode-containing slides are assembled to plastic trays to form electrode-containing wells. Each 16× (or 96×) microtiter plate device used in RT-CES system comprises up to 16 (or 96) such electrode-containing wells. The device station receives the 16× or 96× microtiter plate devices and is capable of electronically switching any one of the wells to the sensor analyzer for impedance measurement. In operation, the devices with cells cultured in the wells are placed into a device station that is located inside an incubator. Electrical cables connect the device station to the sensor analyzer. Under the RT-CES software control, the sensor analyzer can automatically select wells to be measured and continuously conduct impedance measurements. The impedance data from the analyzer is transferred to a computer, analyzed and processed by the integrated software.
(§2) To quantify cell status based on the measured cell-electrode impedance, a parameter termed Cell Index is derived, according to
(§3) [formula] where Rb(f) and Rcell(f) are the frequency dependent electrode resistances (a component of impedance) without cells or with cell present, respectively. N is the number of the frequency points at which the impedance is measured. Thus, Cell Index is a quantitative measure of the status of the cells in an electrode-containing well. Under the same physiological conditions, more cells attached on to the electrodes leads to larger Rcell(f) value, leading to a larger value for Cell Index. Furthermore, for the same number of cells present in the well, a change in the cell status such as morphology will lead to a change in the Cell Index. For example, an increase in cell adhesion or cell spreading leads to larger cell-electrode contact area which will lead to an increase in Rcell(f) and thus a larger value for Cell Index. The Cell Index may also be calculated using a formula different from the one described here. Other methods for calculating the Cell Index based on impedance measurement can be found in PCT application number PCT/US04/37696, fined on Nov. 12, 2004, PCT application number PCT/US05/04481, filed on Feb. 9, 2005, U.S. patent application Ser. No. 10/987,732, filed on Nov. 12, 2004, and U.S. patent application Ser. No. 11/055,639, filed on Feb. 9, 2005.
(§4) OVCAR4 cells (human ovarian cancer cells) were seeded into wells of 16× or 96× microtiter plate devices (electronic plates, i.e., the plates comprise microelectrode sensor arrays in the wells of the plate) with an initial seeding density of 10,000 cells per well and were pre-incubated in incubator under standard cell culture conditions for about 27 hrs. Dibenzyl trisulfide solution in DMSO was added into wells following the incubation period. The cell status was monitored prior to and after the compound addition using RT-CES system. The cell indexes of different wells were between 1.4 and 1.7 just before the compound addition. […] The cell index was normalized against the cell index values at a time point just after compound addition (about 28 hrs after cell seeding).
(§5) For the assay performed on the RT-CES system, the cells were seeded into the 16× or 96× microtiter plate devices (electronic plates, i.e., the plates comprise microelectrode sensor arrays in the wells of the plate) at the seeding density ranging from 5000 cells/well to 15,000 cells/well. The cells were incubated at 5% CO2 and 37° C. for overnight till the cell indices reached the growth phase where the cell index was between 0.8 and 1.2. Serially diluted compounds were then added to the cells followed by dynamic monitoring of the effect of the compounds on the cell proliferation and cytotoxicity. […]

Test [2] shares this test system. Nature of the test: MTT assay IC50 (48 h), OVCAR4. To be noted: OVCAR-4, OVCAR4, 48 hours. The protocol:
(§6) In another assay format, a test compound is assayed for its cytotoxicity and/or cytostatic effect on certain cancer cell types, using endpoint assay methods. Cells in the NCI cancer cell panel may be used. Cells after a pre-incubation for certain length of time (for example, 8 hrs or 24 hrs) are incubated with a test compound at serially-diluted concentrations (for example, five 10-fold dilutions) for 24 hrs and/or 48 hrs, and/or other specific length of time. The dose dependent cytotoxicity and/or cytostatic effects of test compounds can then be tested and evaluated using the 3-(4,5-dimethylthiazol-2-yl)-2,5-diphenyltetrazolium bromide (MTT) assay method, as described by, for example, Boyd (In Principle of Practice of Oncology, Devita, J. T., Hellman, S. and Rosenberg S. A. (Eds), 1989, Vol, 3, PPO Update, No. 10).
(§7) The anticancer potency of DBTS and its derivatives were tested in 8 different types of human cancer cell lines using the RT-CES system and MTT assay. The 8 cancer cell lines were HT1080 (the human fibrosarcoma cell line), H460 (human non small cell lung cancer cell line), OVCAR4 (the human ovarian cancer cell line), MCF7 (human breast cancer cell line) MDA-MB231 (M231, the human breast cancer cell line) A2780 (the human […] cancer cell line) Jurkat (the human T cell leukemia cell line). The test DBTS derivatives include ACEA100107, ACEA100108, ACEA100109, ACEA100111, ACEA100115, ACEA100116, ACEA100117, ACEA100118, ACEA100119, and ACEA100120.
(§8) For the MTT assay, the cells were seeded into the regular 96× well plates at the cell seeding density ranging from 5000 cells/well to 15,000 cells/well. The cells were incubated at 5% CO2 and 37° C. for overnight. The derivatives were serially diluted and added to the cells. The treatment was terminated after 48 hours of incubation by adding MTT staining reagent. After 4 hours, the staining was stopped by the stop buffer and then the calorimetric measurement was carried out on a microtiter plate reader at dual wave length, 650 nm and 550 nm.

The subject of test [3] is Jurkat (human T cell leukemia cell line). Description: MTT assay IC50 (48 h), Jurkat. As to the method:
as §6, §7, §8

Test [4] relates to HT1080 (human fibrosarcoma cell line). Description: MTT assay IC50 (48 h), HT1080. To be noted: HT-1080, HT1080, 48 hours. The protocol: as §6, §7, §8
Test [5] relates to MCF7 (human breast cancer cell line). Nature of the test: RT-CES system cell proliferation/cytotoxicity IC50, MCF7. To be noted: time point of maximum inhibition.
Description: as §1, §2, §3
as §4, with “MCF-7” for “OVCAR4”, “breast” for “ovarian”, “44” for “27”, “1.2” for “1.4”, “1.5” for “1.7”, “44.5” for “28”
as §5

The next test has as its system A2780 cells. Nature of the test: MTT assay IC50 (48 h), A2780. To be noted: Homo sapiens; A2780, 48 hours. The protocol: as §6, §7, §8
On the technique in general: Tetrazolium assays rely on reduction of a dye to a coloured formazan, in cell work by metabolically active cells.

The subject of another test is HepG2 cells. Nature of the test: MTT assay IC50 (48 h), HepG2 (eighth cell line not given). To be noted: Homo sapiens; HepG2, 48 hours. As to the method:
as §6, §7, §8

In general, IC50 refers to the concentration that gives 50% inhibition. A low value points to inhibition by little substance.

In the case of `Fc1ccc(CSSSCc2ccc(F)cc2)cc1` [ACEA100108, Di(p-fluorobenzyl)trisulfide], the IC50 was 2 µM in test [1]; over 50000 nM in test [2]; 350 nM in test [3]; 19000 nM in test [4]; 2.15 µM in test [5]; 4700 nM in the test with A2780 cells. The compound also registered a half-maximal inhibitory concentration (IC50) with HepG2 cells of over 50000 nM.

For the compound `Clc1ccccc1CSSSCc1ccccc1Cl` [ACEA100115, Di(o-chlorobenzyl)trisulfide], the IC50 in test [1] is 0.5 µM; in test [2] it was over 50000 nM; in test [3], 510 nM; in test [4], 12400 nM; in test [5], 7.8 µM; with A2780 cells, 1500 nM. This compound also yielded an IC50 with HepG2 cells of over 50000 nM.

Consider `Cc1cccc(CSSSCc2cccc(C)c2)c1` [ACEA100116, di(m-methylbenzyl)trisulfide], for which the IC50 in test [1] is 0.6 µM; in test [2] it was over 50000 nM; in test [3], 300 nM; in test [4] it was 2200 nM; in test [5] it was 2.75 µM; in the test on A2780 cells it was 800 nM. The same compound came in with a concentration for half-maximal inhibition (IC50) in the test on HepG2 cells of over 50000 nM.

With `FC(F)(F)c1cccc(CSSSCc2cccc(C(F)(F)F)c2)c1` [ACEA100117, Di(m-trifluoromethylbenzyl)trisulfide], the concentration for half-maximal inhibition (IC50) is 33.5 µM in test [1]; over 50000 nM in test [2]; 8000 nM in test [3]; 47500 nM in test [4]; 48.8 µM in test [5]; 11700 nM in the test on A2780 cells. For the same compound, the IC50 in the test on HepG2 cells is over 50000 nM.

With `Clc1ccc(CSSSCc2ccc(Cl)cc2)cc1` [ACEA100118, Di(p-chlorobenzyl)trisulfide], the IC50 is 2.25 µM in test [1]; over 50000 nM in test [2]; 500 nM in test [3]; 1150 nM in test [4]; 4.4 µM in test [5]; 800 nM with A2780 cells. The IC50 with HepG2 cells was over 50000 nM.

Consider `c1ccc(CSSSCc2ccccc2)cc1` [DBTS, Dibenzyl trisulfide], for which the IC50 was 1.75 µM in test [1]; over 50000 nM in test [2]; 350 nM in test [3]; 2550 nM in test [4]; 6.6 µM in test [5]; 1200 nM in the test on A2780 cells. The compound also registered an IC50 with HepG2 cells of over 50000 nM.
